In brackets after ≈: the same amount, converted by molar mass.
Legend:
KB = assay: Cytotoxicity against human KB cells; format: functional; conditions: read-out: ED50 (the source's name)
[1] = Anticarcinogenic activity in hamster embryonic cells at 25 ug/mL after 30 mins relative to control; format: functional, Cricetinae

Row | Structure (SMILES) | EC50 (KB) [µg/mL] | Activity [1] [%]
1 | C=C1C(=O)O[C@@H]2C[C@@]3(C)C[C@@H](O)C[C@H](C)C3=C[C@H]12 | 0.33 (≈ 1.33 µM) | 
2 | COc1c(O)cc2oc(-c3ccc(O)c(O)c3)c(OC)c(=O)c2c1O [AXILLARIN] |  | 61.3
3 | C=C1C(=O)O[C@@H]2C[C@@]3(C)C[C@@H](O)C[C@H](C)[C@@]34O[C@H]4[C@H]12 | 0.4 (≈ 1.51 µM) | 
4 | C=C1C(=O)O[C@@H]2C[C@@]3(C)C[C@@H](OC(C)=O)C[C@H](C)[C@@]34O[C@H]4[C@H]12 | 0.05 (≈ 0.163 µM) | 

— ChEMBL document CHEMBL1151100, “Potential cancer chemopreventive and cytotoxic agents from Pulicaria crispa” (1988)
